In patent US20100267561A1, “HERBICIDAL PYRIDAZINONE DERIVATIVES” (priority 2007, published 2010):

What was measured:
Assay type in all cases: in vivo
[1] = system: pigweed (Amaranthus retroflexus); assay: Test A pre-/postemergence plant response
Outline: (§1)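 Seeds in loam soil/sand blend treated preemergence by directed soil spray, with simultaneous postemergence spray on 2–10 cm plants at one- to two-leaf stage; compounds in non-phytotoxic solvent with surfactant. Injury visually rated versus untreated controls after about 10 days in greenhouse, 0 (no effect) to 100 (complete control).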

[2] = system: wheat (Triticum aestivum); assay: Test A pre-/postemergence plant response
Outline: as §1

[3] = system: Italian ryegrass (Lolium multiflorum); assay: Test C pre-/postemergence plant response
Outline: (§2)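 Greenhouse-type test under controlled conditions: soil-surface preemergence treatment of sown seed and foliar postemergence treatment of seedlings 2–18 cm tall. Each compound was in non-phytotoxic solvent with surfactant. Response was rated by eye after 15–25 days, 0 to 100, against controls.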

[4] = system: annual bluegrass (Poa annua); assay: Test C pre-/postemergence plant response
Outline: as §2

[5] = system: blackgrass (Alopecurus myosuroides); assay: Test C pre-/postemergence plant response
Outline: as §2

[6] = system: canarygrass (Phalaris minor); assay: Test C pre-/postemergence plant response; conditions: Preemergence
Outline: as §2

[7] = system: downy bromegrass (Bromus tectorum); assay: Test C pre-/postemergence plant response
Outline: as §2

[8] = system: green foxtail (Setaria viridis); assay: Test C pre-/postemergence plant response
Outline: as §2

[9] = system: pigweed (Amaranthus retroflexus); assay: Test C pre-/postemergence plant response
Outline: as §2

[10] = system: spring barley (Hordeum vulgare); assay: Test C pre-/postemergence plant response
Outline: as §2

[11] = system: spring wheat (Triticum aestivum); assay: Test C pre-/postemergence plant response
Outline: as §2

[12] = system: wild mustard (Sinapis arvensis); assay: Test C pre-/postemergence plant response
Outline: as §2

wild oat (Avena fatua) = assay: Test C pre-/postemergence plant response
Outline: as §2

[13] = system: windgrass (Apera spica-venti); assay: Test C pre-/postemergence plant response
Outline: as §2

[14] = system: winter barley (Hordeum vulgare); assay: Test C pre-/postemergence plant response
Outline: as §2

[15] = system: winter wheat (Triticum aestivum); assay: Test C pre-/postemergence plant response
Outline: as §2

[16] = Postemergence, 31 g ai/ha, 0 to 100 scale, 0 no effect, 100 complete control
[17] = Postemergence, 125 g ai/ha, 0 to 100 scale, 0 no effect, 100 complete control
[18] = Preemergence, 31 g ai/ha, 0 to 100 scale, 0 is no effect, 100 is complete control
[19] = Preemergence, 125 g ai/ha, 0 to 100 scale (0 no effect, 100 complete control)
[20] = Postemergence, 8 g ai/ha, scale 0 to 100, 0 no effect, 100 complete control
[21] = Postemergence, 16 g ai/ha, scale 0 to 100, 0 no effect, 100 complete control
[22] = Postemergence, 31 g ai/ha, scale 0 to 100, 0 no effect, 100 complete control
[23] = Postemergence, 62 g ai/ha, scale 0 to 100, 0 no effect, 100 complete control
[24] = Preemergence, 8 g ai/ha, scale 0 to 100 (0 no effect, 100 complete control)
[25] = Preemergence, 16 g ai/ha, scale 0 to 100 (0 no effect, 100 complete control)
[26] = Preemergence, 31 g ai/ha, scale 0 to 100 (0 no effect, 100 complete control)
[27] = Preemergence, 62 g ai/ha, scale 0 to 100, 0 no effect, 100 complete control

SMILES: CCOC(=O)Oc1cnn(C)c(=O)c1-n1nc(-c2ccc(Cl)cc2)cc1C [Compound 53]
- Plant response rating, Pigweed [1, 16]: 0
- Plant response rating, Pigweed [1, 17]: 0
- Plant response rating, Pigweed [1, 18]: 0
- Plant response rating, Pigweed [1, 19]: 0
- Plant response rating, Wheat [2, 16]: 20
- Plant response rating, Wheat [2, 17]: 70
- Plant response rating, Wheat [2, 18]: 50
- Plant response rating, Wheat [2, 19]: 90
- Plant response rating, Ryegrass, Italian [3, 20]: 75
- Plant response rating, Ryegrass, Italian [3, 21]: 100
- Plant response rating, Ryegrass, Italian [3, 22]: 100
- Plant response rating, Ryegrass, Italian [3, 23]: 100
- Plant response rating, Ryegrass, Italian [3, 24]: 25
- Plant response rating, Ryegrass, Italian [3, 25]: 100
- Plant response rating, Ryegrass, Italian [3, 26]: 100
- Plant response rating, Ryegrass, Italian [3, 27]: 100
- Plant response rating, Bluegrass [4, 20]: 0
- Plant response rating, Bluegrass [4, 21]: 0
- Plant response rating, Bluegrass [4, 22]: 0
- Plant response rating, Bluegrass [4, 23]: 35
- Plant response rating, Bluegrass [4, 24]: 0
- Plant response rating, Bluegrass [4, 25]: 20
- Plant response rating, Bluegrass [4, 26]: 40
- Plant response rating, Bluegrass [4, 27]: 65
- Plant response rating, Blackgrass [5, 20]: 65
- Plant response rating, Blackgrass [5, 21]: 100
- Plant response rating, Blackgrass [5, 22]: 100
- Plant response rating, Blackgrass [5, 23]: 100
- Plant response rating, Blackgrass [5, 24]: 70
- Plant response rating, Blackgrass [5, 25]: 75
- Plant response rating, Blackgrass [5, 26]: 98
- Plant response rating, Blackgrass [5, 27]: 98
- Plant response rating, Canarygrass ([6]; 8 g ai/ha, scale 0 to 100 (0 no effect, 100 complete control)): 0
- Plant response rating, Canarygrass ([6]; 16 g ai/ha, scale 0 to 100 (0 no effect, 100 complete control)): 0
- Plant response rating, Canarygrass ([6]; 31 g ai/ha, scale 0 to 100 (0 no effect, 100 complete control)): 95
- Plant response rating, Canarygrass ([6]; 62 g ai/ha, scale 0 to 100, 0 no effect, 100 complete control): 95
- Plant response rating, Bromegrass, Downy [7, 20]: 0
- Plant response rating, Bromegrass, Downy [7, 21]: 20
- Plant response rating, Bromegrass, Downy [7, 22]: 30
- Plant response rating, Bromegrass, Downy [7, 23]: 90
- Plant response rating, Bromegrass, Downy [7, 24]: 10
- Plant response rating, Bromegrass, Downy [7, 25]: 20
- Plant response rating, Bromegrass, Downy [7, 26]: 80
- Plant response rating, Bromegrass, Downy [7, 27]: 85
- Plant response rating, Foxtail, Green [8, 20]: 95
- Plant response rating, Foxtail, Green [8, 21]: 98
- Plant response rating, Foxtail, Green [8, 22]: 100
- Plant response rating, Foxtail, Green [8, 23]: 100
- Plant response rating, Foxtail, Green [8, 24]: 90
- Plant response rating, Foxtail, Green [8, 25]: 90
- Plant response rating, Foxtail, Green [8, 26]: 100
- Plant response rating, Foxtail, Green [8, 27]: 100
- Plant response rating, Pigweed [9, 20]: 0
- Plant response rating, Pigweed [9, 21]: 0
- Plant response rating, Pigweed [9, 22]: 0
- Plant response rating, Pigweed [9, 23]: 0
- Plant response rating, Pigweed [9, 24]: 0
- Plant response rating, Pigweed [9, 25]: 0
- Plant response rating, Pigweed [9, 26]: 0
- Plant response rating, Pigweed [9, 27]: 0
- Plant response rating, Barley, Spring [10, 20]: 0
- Plant response rating, Barley, Spring [10, 21]: 40
- Plant response rating, Barley, Spring [10, 22]: 40
- Plant response rating, Barley, Spring [10, 23]: 100
- Plant response rating, Barley, Spring [10, 24]: 0
- Plant response rating, Barley, Spring [10, 25]: 0
- Plant response rating, Barley, Spring [10, 26]: 40
- Plant response rating, Barley, Spring [10, 27]: 75
- Plant response rating, Wheat, Spring [11, 20]: 5
- Plant response rating, Wheat, Spring [11, 21]: 50
- Plant response rating, Wheat, Spring [11, 22]: 80
- Plant response rating, Wheat, Spring [11, 23]: 98
- Plant response rating, Wheat, Spring [11, 24]: 0
- Plant response rating, Wheat, Spring [11, 25]: 20
- Plant response rating, Wheat, Spring [11, 26]: 85
- Plant response rating, Wheat, Spring [11, 27]: 85
- Plant response rating, Mustard, Wild [12, 20]: 0
- Plant response rating, Mustard, Wild [12, 21]: 0
- Plant response rating, Mustard, Wild [12, 22]: 0
- Plant response rating, Mustard, Wild [12, 23]: 0
- Plant response rating, Mustard, Wild [12, 24]: 0
- Plant response rating, Mustard, Wild [12, 26]: 0
- Plant response rating, Mustard, Wild [12, 27]: 0
- Plant response rating, Oat, Wild (wild oat (Avena fatua); [20]): 25
- Plant response rating, Oat, Wild (wild oat (Avena fatua); [21]): 90
- Plant response rating, Oat, Wild (wild oat (Avena fatua); [22]): 100
- Plant response rating, Oat, Wild (wild oat (Avena fatua); [23]): 100
- Plant response rating, Oat, Wild (wild oat (Avena fatua); [24]): 0
- Plant response rating, Oat, Wild (wild oat (Avena fatua); [25]): 0
- Plant response rating, Oat, Wild (wild oat (Avena fatua); [26]): 75
- Plant response rating, Oat, Wild (wild oat (Avena fatua); [27]): 85
- Plant response rating, Windgrass [13, 20]: 0
- Plant response rating, Windgrass [13, 21]: 0
- Plant response rating, Windgrass [13, 22]: 50
- Plant response rating, Windgrass [13, 23]: 70
- Plant response rating, Windgrass [13, 24]: 0
- Plant response rating, Windgrass [13, 25]: 30
- Plant response rating, Windgrass [13, 26]: 75
- Plant response rating, Windgrass [13, 27]: 90
- Plant response rating, Barley, Winter [14, 20]: 0
- Plant response rating, Barley, Winter [14, 21]: 10
- Plant response rating, Barley, Winter [14, 22]: 40
- Plant response rating, Barley, Winter [14, 23]: 95
- Plant response rating, Barley, Winter [14, 24]: 0
- Plant response rating, Barley, Winter [14, 25]: 15
- Plant response rating, Barley, Winter [14, 26]: 50
- Plant response rating, Barley, Winter [14, 27]: 50
- Plant response rating, Wheat, Winter [15, 20]: 0
- Plant response rating, Wheat, Winter [15, 21]: 10
- Plant response rating, Wheat, Winter [15, 22]: 65
- Plant response rating, Wheat, Winter [15, 23]: 95
- Plant response rating, Wheat, Winter [15, 24]: 0
- Plant response rating, Wheat, Winter [15, 25]: 0
- Plant response rating, Wheat, Winter [15, 26]: 50
- Plant response rating, Wheat, Winter [15, 27]: 70
